Data from PMC10135050, “Neutralizing Carbapenem Resistance by Co-Administering Meropenem with Novel β-Lactam-Metallo-β-Lactamase Inhibitors” (Antibiotics, 2023).
In brackets after ≈: the same amount, converted by molar mass. Entries after “also recorded” stand apart in the source; their conditions may differ.

Key:
[1] = MTT cell viability assay; type: cell-based, human; details: human, HepG2 cells, 6 h, read-out: IC50 cytotoxicity
Procedure: (§1) HepG2 cells were cultured in 25 mL cell culture flasks using Eagle’s minimum essentials medium (EMEM) supplemented with 10% fetal bovine serum, 1% pen-strep-fungizone and 1% L-glutamine, maintained in a humidified incubator (37 °C, 5% CO2) until approximately 80% confluence.
(§2) The MTT assay was one of the methods used to determine in vitro cell viability of BP on HepG2 cells. HepG2 cells (15,000 cells/well) were seeded into a 96-well microtiter plate and allowed to adhere overnight (37 °C, 5% CO2). Thereafter, the cells were incubated (37 °C, 5% CO2) with a range of BP concentrations (0, 1, 8, 10, 50, 100 and 200 μg/mL) in triplicate for 6 h. After the 6 h incubation, the cells were washed with 0.1 M phosphate-buffered saline (PBS) and incubated with MTT salt solution (5 mg/mL in 0.1 M PBS) and 100 μL CCM for 4 h (37 °C, 5% CO2). The MTT salt solution was removed, and DMSO (100 μL/well) was added and incubated for 1 h. The optical density was measured using a spectrophotometer (Bio-Tek μQuant) at 570/690 nm. Results are expressed as % cell viability versus BP2 concentration (μg/mL).

[2] = system: HepG2 cells; experiment: MTT cell viability assay; type: cell-based, human
Procedure: as §1, §2

[3] = system: HepG2 cells; experiment: LDH membrane leakage assay; type: cell-based, human
Procedure: as §1
The LDH assay was used to assess membrane damage of HepG2 cells. Supernatant collected from control and BP2 treated cells were centrifuged (400× g, 24 °C, 10 min) and dispensed (100 μL/well) in triplicate into a 96-well microtiter plate. LDH reagent (100 μL, 11644793001, Sigma Aldrich, Schnelldorf, Germany) was added to each well. The plate was incubated for 30 min at room temperature in the dark. Absorbance was read using a spectrophotometer (Bio-Tek μQuant,) at […]. Results are represented as relative fold change compared to untreated control.

[4] = molecular target: T1, NDM-1 (Klebsiella pneumoniae, UniProt C7C422); experiment: Enzyme inhibition kinetics (nitrocefin); type: biochemical
T1 construct: purchased RayBiotech (RayBiotech Life Inc., Peachtree Corners, GA, USA)
Procedure: (§3) The IC50 was calculated from the generated sigmoidal curves (Figure S1) using GraphPad Prism software version 8.0.2 (GraphPad Inc., San Diego, CA, USA), and the Ki app was calculated using the Cheng–Prusoff equation [43]. […] However, we expect that inhibitors that remove one Zn atom from the enzyme active site will be slow-acting irreversible inhibitors that would require a more detailed kinetic analysis than used here. […] Structurally, BP2 is a thiazole-containing compound, while BP1 lacks this moiety. It is unclear whether the increased inhibition activity is due to the longer distance between the chelator moiety and the lactam moiety, which is less likely to sterically hinder the chelator, or if it is the thiazole itself that boosts the interaction efficacy of the compound.
(§4) A dose-dependent enzyme inhibition assay was performed using a Biotek PowerWave XS2 (Biotek Instruments Inc., Winooski, VT, USA) plate reader. NDM-1 and VIM-2 enzymes were purchased from RayBiotech (RayBiotech Life Inc., Peachtree Corners, GA, USA). Enzymes in the quantity of 1 nM (NDM-1) or 0.5 nM (VIM-2) were used in this study with a fixed nitrocefin concentration of either 120 µM (NDM-1) or 50 µM (VIM-2) and varying BP2 concentrations ranging from 5 to 200 µM (NDM-1) and 2.5 to 300 µM (VIM-2) in 50 mM HEPES buffer supplemented with 100 µg/mL BSA and 10 µM ZnCl2. Inhibition was measured at 482 nm at 25 °C.

[5] = molecular target: T2, VIM-2 (Escherichia coli, UniProt Q5U7L7); experiment: Enzyme inhibition kinetics (nitrocefin); type: biochemical
T2 construct: purchased RayBiotech (RayBiotech Life Inc., Peachtree Corners, GA, USA)
Procedure: as §3, §4

[6] = molecular target: T3, Recombinant human glyoxylase II (Glo2) (Homo sapiens, UniProt Q16775); experiment: Non-specific binding to zinc in non-MBLs, glyoxylase II activity; type: biochemical; details: concentrations up to 500 µM
T3 construct: purchased BioVision Inc., Waltham, MA, USA
Text: Metal chelators are known to suffer from off-target specificity and as a result have been criticized as potential MBLIs in vivo [44].
The methodology has been previously described. EDTA (purchased from Merck KGaA, Darmstadt, Germany) was included as a positive control.

T1 sequence (C7C422 29-270, looked up, species assumed): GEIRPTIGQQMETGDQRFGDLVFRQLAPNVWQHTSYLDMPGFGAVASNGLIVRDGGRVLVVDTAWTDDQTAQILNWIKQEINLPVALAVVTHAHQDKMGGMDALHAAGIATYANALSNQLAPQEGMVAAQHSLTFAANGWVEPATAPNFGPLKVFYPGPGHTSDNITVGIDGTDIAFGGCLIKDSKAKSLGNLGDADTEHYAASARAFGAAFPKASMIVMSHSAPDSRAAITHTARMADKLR

## CON=C(C(=O)NC1C(=O)N2C(C(=O)O)=C(COC(C)=O)CSC12)c1csc(NC(=O)CC(C(=O)OC)N2CCN(CC(=O)O)CCN(CC(=O)O)CC2)n1 (stereo in doubt) [BP2]
[1]
  IC50 at 6 h: 62 µg/mL (≈ 76.3 µM)
[2]; 1 µg/mL and 10 µg/mL
  Cell viability compared to the control: significantly increased
[2]; 200 µg/mL
  Cell viability compared to the control: significant decrease
[2]; 50–100 µg/mL
  Cell viability compared to the control: not significantly altered
[3]; HepG2, 1 µg/mL
  LDH levels: remained unaffected
[3]; HepG2, 8 µg/mL–200 µg/mL
  LDH membrane leakage: significantly decreased
[3]; HepG2, all concentrations tested
  Cell membrane integrity (LDH leakage): not disrupted
[4]; NDM-1 1 nM, nitrocefin 120 µM, mean ± SD
  IC50: 70.7 ± 4.5 µM
[4]; NDM-1, Cheng–Prusoff equation, read-out: Ki app
  Ki: 35.3 µM
[5]; VIM-2 0.5 nM, nitrocefin 50 µM, mean ± SD
  IC50: 57.1 ± 2.9 µM
[5]; VIM-2, Cheng–Prusoff equation, read-out: Ki app
  Ki: 30.9 µM
[6]
  Glyoxylase II activity: did not reduce the activity; also recorded: did not interact
